Data published in US20100086931A1, “METHOD FOR ASSAYING ACTION OF ANTITUMOR AGENT USING DECREASE IN GENE EXPRESSION LEVEL AS INDEX” (Eisai R&D Management Co., Ltd., priority 2007, published 2010).

Test system: peripheral blood mononuclear cells (PBMC)
Assay: Microarray analysis (Human Exon 1.0 ST Array) of gene expression in PBMC
Type: cell-based
Conditions: vs untreated group
Text: Since it is not easy to obtain a cancer tissue clinically, the measurement of the marker in hemocytes readily obtainable in peripheral blood would be more useful. It was then examined whether the marker gene obtained in cancer cells could change in peripheral mononuclear cells in a similar manner as observed in the cancer cells. Specifically peripheral blood was taken from three normal individuals (volunteers) and peripheral mononuclear cells were purified and treated with (8E,12E,14E)-7-((4-Cycloheptylpiperazin-1-yl)carbonyl)oxy-3,6,16,21-tetrahydroxy-6,10,12,16,20-pentamethyl-18,19-epoxytricosa-8,12,14-trien-11-olide for six hours, followed by measurement of change in expression of the gene by a microarray (Human Exon 1.0 ST Array: Affymetrix).
Ficoll-Paque PLUS solution (Amersham, 17-1440-02) was slowly added to the blood taken (with heparin added) from healthy individuals to form a layer underneath the blood (15 ml of Ficoll-Paque PLUS solution was added to 25 ml of blood). After the mixture was centrifuged at 1500 rpm for 30 min, the upper part containing platelets was removed and then a layer containing mononuclear cells was transferred to another tube. The cells were suspended in PBS and centrifuged at 1500 rpm for 5 min, followed by removal of the supernatant. After these steps were repeated twice, the cells were again suspended in RPMI1640 (containing 10% FBS, penicillin, and streptomycin) and the number of the cells was then counted.
PBMC was suspended in RPMI1640 medium (containing 10% FBS, penicillin, and streptomycin) to 5×10^6 cells/ml and 1 ml of the suspension was plated per well of a 24-well plate. Immediately, 111 μl of 10 times-concentrated (8E,12E,14E)-7-((4-Cycloheptylpiperazin-1-yl)carbonyl)oxy-3,6,16,21-tetrahydroxy-6,10,12,16,20-pentamethyl-18,19-epoxytricosa-8,12,14-trien-11-olide was added to the well (six wells per each concentration tested). The cells were then cultured in an incubator with 5% carbon dioxide gas at 37° C. Three hours later, the supernatant was collected and centrifuged at 1500 rpm for five minutes. TRI reagent (SIGMA) (1 ml) was added to each well of the plate from which the supernatant was removed to harvest the cells, which was added to the centrifuged pellet to dissolve. RNA was purified in accordance with the protocol of TRI reagent. RNA was further purified using RNeasy (QIAGEN) and, in accordance with the protocol, DNase I was added to the samples during the procedure. Absorbance at 260 nm was measured to quantify an amount of RNA.
Ribosomal RNA was removed from 1 μg of each RNA by using RiboMinus Human/Mouse Transcriptome Isolation Kit (Invitrogen). Single stranded cDNA synthesis, double stranded cDNA synthesis, cRNA synthesis, second single stranded cDNA synthesis, cDNA fragmentation, and cDNA labeling in order were carried out for total RNA from which ribosomal RNA was removed, using GeneChip Whole Transcript Sense Target Labeling and Control Reagents (Affymetrix) to make a cDNA probe. Subsequently, the cDNA probe was used for hybridization with Human Exon 1.0 ST Array (Affymetrix). The array was washed and stained, and luminescence intensity was measured by a scanner.
The expression level of the gene was quantified by using Expression Console Ver. 1.0 (Affymetrix) with Summarization Method and Normalization Method being set to “Median polish as used in RMA” and “None”, respectively.
Genes showing the change in the expression of the gene in both groups with the 10 nM treatment and the 30 nM treatment is, compared to that in the […], less than 25%; the expression level of the gene in the untreated group is more than 100; both P values of t-test for the 10 nM treated group and the untreated group, and for the 30 nM treated group and the untreated group are less than 5% were picked out. (Table 4). […]

CCC(O)C(C)C1OC1CC(C)(O)/C=C/C=C(\C)C1OC(=O)CC(O)CCC(C)(O)C(OC(=O)N2CCN(C3CCCCCC3)CC2)/C=C/C1C (centres unmarked) [E7107, (8E,12E,14E)-7-((4-Cycloheptylpiperazin-1-yl)carbonyl)oxy-3,6,16,21-tetrahydroxy-6,10,12,16,20-pentamethyl-18,19-epoxytricosa-8,12,14-trien-11-olide]
0.17: Fold Change in expression level of SLC43A3 (Transcript Cluster 3373845) (10 nM) | Fold Change in expression level of RCN1 (Transcript Cluster 3325503) (30 nM) | Fold Change in expression level of SLC41A2 (Transcript Cluster 3469180) (30 nM) | Fold Change in expression level of TRAF1 (Transcript Cluster 3223738) (30 nM)
0.22: Fold Change in expression level of P2RX4 (Transcript Cluster 3434760) (10 nM) | Fold Change in expression level of SLC43A2 (Transcript Cluster 3740367) (10 nM) | Fold Change in expression level of P2RX4 (Transcript Cluster 3434760) (30 nM) | Fold Change in expression level of SEMA6B (Transcript Cluster 3846860) (30 nM) | Fold Change in expression level of STEAP4 (Transcript Cluster 3060332) (30 nM)
0.10: Fold Change in expression level of KYNU (Transcript Cluster 2508520) (10 nM) | Fold Change in expression level of TNFSF15 (Transcript Cluster 3222128) (10 nM) | Fold Change in expression level of KYNU (Transcript Cluster 2508520) (30 nM)
0.19: Fold Change in expression level of CD274 (Transcript Cluster 3161082) (10 nM) | Fold Change in expression level of GK (Transcript Cluster 3972929) (10 nM) | Fold Change in expression level of TRAF1 (Transcript Cluster 3223738) (10 nM) | Fold Change in expression level of C13orf31 (Transcript Cluster 3487600) (30 nM) | Fold Change in expression level of TNFAIP6 (Transcript Cluster 2510464) (30 nM)
0.07: Fold Change in expression level of TNFSF15 (Transcript Cluster 3222128) (30 nM)
0.14: Fold Change in expression level of ARFGAP3 (Transcript Cluster 3962587) (30 nM) | Fold Change in expression level of DOCK4 (Transcript Cluster 3068097) (30 nM) | Fold Change in expression level of LAIR1 (Transcript Cluster 3870824) (30 nM) | Fold Change in expression level of SLAMF7 (Transcript Cluster 2363202) (30 nM) | Fold Change in expression level of SLC43A3 (Transcript Cluster 3373845) (30 nM)
0.04: Fold Change in expression level of OLR1 (Transcript Cluster 3444043) (30 nM)
0.24: Fold Change in expression level of ENG (Transcript Cluster 3226097) (10 nM)
0.06: Fold Change in expression level of SLC7A11 (Transcript Cluster 2786322) (30 nM)
0.13: Fold Change in expression level of KMO (Transcript Cluster 2388085) (10 nM) | Fold Change in expression level of SLC7A11 (Transcript Cluster 2786322) (10 nM) | Fold Change in expression level of KMO (Transcript Cluster 2388085) (30 nM) | Fold Change in expression level of NRIP3 (Transcript Cluster 3362159) (30 nM)
0.12: Fold Change in expression level of PLA2G7 (Transcript Cluster 2955827) (10 nM)
0.09: Fold Change in expression level of CTSL1 (Transcript Cluster 3178147) (10 nM) | Fold Change in expression level of OLR1 (Transcript Cluster 3444043) (10 nM) | Fold Change in expression level of RCN1 (Transcript Cluster 3325503) (10 nM) | Fold Change in expression level of CTSL1 (Transcript Cluster 3178147) (30 nM)
0.20: Fold Change in expression level of STEAP4 (Transcript Cluster 3060332) (10 nM) | Fold Change in expression level of ENG (Transcript Cluster 3226097) (30 nM)
0.18: Fold Change in expression level of TNFAIP6 (Transcript Cluster 2510464) (10 nM) | Fold Change in expression level of CD274 (Transcript Cluster 3161082) (30 nM) | Fold Change in expression level of SLC43A2 (Transcript Cluster 3740367) (30 nM)
0.21: Fold Change in expression level of ARFGAP3 (Transcript Cluster 3962587) (10 nM) | Fold Change in expression level of C13orf31 (Transcript Cluster 3487600) (10 nM) | Fold Change in expression level of LAIR1 (Transcript Cluster 3870824) (10 nM) | Fold Change in expression level of SLC37A2 (Transcript Cluster 3354443) (10 nM) | Fold Change in expression level of SLC41A2 (Transcript Cluster 3469180) (10 nM) | Fold Change in expression level of GK (Transcript Cluster 3972929) (30 nM) | Fold Change in expression level of PIK3R5 (Transcript Cluster 3744680) (30 nM) | Fold Change in expression level of TRAPPC4 (Transcript Cluster 3351775) (30 nM)
0.23: Fold Change in expression level of PIK3R5 (Transcript Cluster 3744680) (10 nM) | Fold Change in expression level of SEMA6B (Transcript Cluster 3846860) (10 nM) | Fold Change in expression level of TRAPPC4 (Transcript Cluster 3351775) (10 nM) | Fold Change in expression level of SLC37A2 (Transcript Cluster 3354443) (30 nM)
0.16: Fold Change in expression level of DOCK4 (Transcript Cluster 3068097) (10 nM)
0.15: Fold Change in expression level of NRIP3 (Transcript Cluster 3362159) (10 nM) | Fold Change in expression level of SLAMF7 (Transcript Cluster 2363202) (10 nM) | Fold Change in expression level of PLA2G7 (Transcript Cluster 2955827) (30 nM)
